Converted amounts (≈) assume the structure as drawn.
Key:
Staphylococcus aureus = experiment: Antibacterial activity against Staphylococcus aureus ATCC 6538 after 24 hrs by MTT assay; format: functional; settings: ATCC 6538, 24 h
Bacillus subtilis = experiment: Antibacterial activity against Bacillus subtilis ATCC 530 after 24 hrs by MTT assay; format: functional; settings: ATCC 530, 24 h
Pseudomonas aeruginosa = experiment: Antibacterial activity against Pseudomonas aeruginosa ATCC 27853 after 24 hrs by MTT assay; format: functional; settings: ATCC 27853, 24 h
Escherichia coli = experiment: Antibacterial activity against Escherichia coli ATCC 25922 after 24 hrs by MTT assay; format: functional; settings: ATCC 25922, 24 h
[1] = Toxicity in RBC assessed as concentration required for 30% hemolysis; format: cell-based; settings: erythrocyte
[2] = Inhibition of Escherichia coli FabH expressed in Escherichia coli BL21(DE3) using holo-ACP as substrate after 25 mins

Structure (SMILES)	MIC (Staphylococcus aureus) [µg/mL]	MIC (Bacillus subtilis) [µg/mL]	MIC (Pseudomonas aeruginosa) [µg/mL]	MIC (Escherichia coli) [µg/mL]	HC30 [1] [mg/mL]	IC50 [2] [µM]
Cc1ccc(C2=NN(C3=NC(=O)CS3)C(c3ccccc3)C2)cc1 (stereo not given)	6.25 (≈ 18.6 µM)	12.5 (≈ 37.3 µM)	12.5 (≈ 37.3 µM)	12.5 (≈ 37.3 µM)	–	–
Fc1ccc(C2=NN(c3nc(-c4ccccc4)cs3)C(c3cccs3)C2)cc1 (stereo not given)	12.5 (≈ 30.8 µM)	50 (≈ 123 µM)	12.5 (≈ 30.8 µM)	12.5 (≈ 30.8 µM)	–	–
Brc1ccc(C2=NN(c3nc(-c4ccccc4)cs3)C(c3cccs3)C2)cc1 (stereo not given)	12.5 (≈ 26.8 µM)	6.25 (≈ 13.4 µM)	12.5 (≈ 26.8 µM)	6.25 (≈ 13.4 µM)	> 10	23.3
Clc1ccc(C2=NN(c3nc(-c4ccccc4)cs3)C(c3cccs3)C2)cc1Cl (stereo not given)	> 50	12.5 (≈ 27.4 µM)	12.5 (≈ 27.4 µM)	50 (≈ 110 µM)	> 10	> 150
Cc1ccc(C2=NN(c3nc(-c4ccccc4)cs3)C(c3cccs3)C2)cc1 (stereo not given)	1.56 (≈ 3.88 µM)	3.13 (≈ 7.79 µM)	1.56 (≈ 3.88 µM)	3.13 (≈ 7.79 µM)	> 10	10.9
COc1ccc(C2=NN(c3nc(-c4ccccc4)cs3)C(c3cccs3)C2)cc1 (stereo not given)	6.25 (≈ 15 µM)	12.5 (≈ 29.9 µM)	50 (≈ 120 µM)	6.25 (≈ 15 µM)	> 10	30.6
COc1ccc(-c2csc(N3N=C(c4ccc(F)cc4)CC3c3cccs3)n2)cc1 (stereo not given)	12.5 (≈ 28.7 µM)	12.5 (≈ 28.7 µM)	12.5 (≈ 28.7 µM)	12.5 (≈ 28.7 µM)	–	–
COc1ccc(-c2csc(N3N=C(c4ccc(Br)cc4)CC3c3cccs3)n2)cc1 (stereo not given)	12.5 (≈ 25.2 µM)	12.5 (≈ 25.2 µM)	12.5 (≈ 25.2 µM)	6.25 (≈ 12.6 µM)	–	–
COc1ccc(-c2csc(N3N=C(c4ccc(Cl)c(Cl)c4)CC3c3cccs3)n2)cc1 (stereo not given)	50 (≈ 103 µM)	12.5 (≈ 25.7 µM)	12.5 (≈ 25.7 µM)	50 (≈ 103 µM)	> 10	> 150
COc1ccc(-c2csc(N3N=C(c4ccc(C)cc4)CC3c3cccs3)n2)cc1 (stereo not given)	12.5 (≈ 29 µM)	6.25 (≈ 14.5 µM)	12.5 (≈ 29 µM)	6.25 (≈ 14.5 µM)	–	–
COc1ccc(C2=NN(c3nc(-c4ccc(OC)cc4)cs3)C(c3cccs3)C2)cc1 (stereo not given)	12.5 (≈ 27.9 µM)	50 (≈ 112 µM)	12.5 (≈ 27.9 µM)	12.5 (≈ 27.9 µM)	–	–
Fc1ccc(C2=NN(c3nc(-c4ccccc4)cs3)C(c3ccco3)C2)cc1 (stereo not given)	6.25 (≈ 16 µM)	50 (≈ 128 µM)	12.5 (≈ 32.1 µM)	6.25 (≈ 16 µM)	> 10	22.3
Brc1ccc(C2=NN(c3nc(-c4ccccc4)cs3)C(c3ccco3)C2)cc1 (stereo not given)	1.56 (≈ 3.46 µM)	3.13 (≈ 6.95 µM)	3.13 (≈ 6.95 µM)	3.13 (≈ 6.95 µM)	> 10	9.7
Clc1ccc(C2=NN(c3nc(-c4ccccc4)cs3)C(c3ccco3)C2)cc1Cl (stereo not given)	12.5 (≈ 28.4 µM)	12.5 (≈ 28.4 µM)	> 50	12.5 (≈ 28.4 µM)	–	–
Cc1ccc(C2=NN(c3nc(-c4ccccc4)cs3)C(c3ccco3)C2)cc1 (stereo not given)	1.56 (≈ 4.05 µM)	3.13 (≈ 8.12 µM)	1.56 (≈ 4.05 µM)	1.56 (≈ 4.05 µM)	> 10	4.6
COc1ccc(-c2csc(N3N=C(c4ccc(F)cc4)CC3c3ccco3)n2)cc1 (stereo not given)	12.5 (≈ 29.8 µM)	12.5 (≈ 29.8 µM)	6.25 (≈ 14.9 µM)	6.25 (≈ 14.9 µM)	–	–
COc1ccc(-c2csc(N3N=C(c4ccc(Br)cc4)CC3c3ccco3)n2)cc1 (stereo not given)	12.5 (≈ 26 µM)	6.25 (≈ 13 µM)	6.25 (≈ 13 µM)	6.25 (≈ 13 µM)	> 10	19.7
COc1ccc(-c2csc(N3N=C(c4ccc(Cl)c(Cl)c4)CC3c3ccco3)n2)cc1 (stereo not given)	12.5 (≈ 26.6 µM)	> 50	> 50	50 (≈ 106 µM)	–	–
COc1ccc(-c2csc(N3N=C(c4ccc(C)cc4)CC3c3ccco3)n2)cc1 (stereo not given)	6.25 (≈ 15 µM)	6.25 (≈ 15 µM)	3.13 (≈ 7.53 µM)	3.13 (≈ 7.53 µM)	> 10	15.7
O=C1CSC(N2N=C(c3ccc(F)cc3)CC2c2cccs2)=N1 (stereo not given)	12.5 (≈ 36.2 µM)	12.5 (≈ 36.2 µM)	> 50	6.25 (≈ 18.1 µM)	–	–
O=C1CSC(N2N=C(c3ccc(Br)cc3)CC2c2cccs2)=N1 (stereo not given)	12.5 (≈ 30.8 µM)	12.5 (≈ 30.8 µM)	6.25 (≈ 15.4 µM)	6.25 (≈ 15.4 µM)	> 10	27.1
O=C1CSC(N2N=C(c3ccc(Cl)c(Cl)c3)CC2c2cccs2)=N1 (stereo not given)	12.5 (≈ 31.5 µM)	> 50	12.5 (≈ 31.5 µM)	12.5 (≈ 31.5 µM)	–	–
Cc1ccc(C2=NN(C3=NC(=O)CS3)C(c3cccs3)C2)cc1 (stereo not given)	3.13 (≈ 9.17 µM)	6.25 (≈ 18.3 µM)	6.25 (≈ 18.3 µM)	6.25 (≈ 18.3 µM)	> 10	13.6
COc1ccc(C2=NN(C3=NC(=O)CS3)C(c3cccs3)C2)cc1 (stereo not given)	12.5 (≈ 35 µM)	50 (≈ 140 µM)	> 50	12.5 (≈ 35 µM)	> 10	89.9
O=C1CSC(N2N=C(c3ccc(F)cc3)CC2c2ccco2)=N1 (stereo not given)	3.13 (≈ 9.5 µM)	3.13 (≈ 9.5 µM)	6.25 (≈ 19 µM)	3.13 (≈ 9.5 µM)	> 10	8.4
O=C1CSC(N2N=C(c3ccc(Br)cc3)CC2c2ccco2)=N1 (stereo not given)	6.25 (≈ 16 µM)	12.5 (≈ 32 µM)	12.5 (≈ 32 µM)	6.25 (≈ 16 µM)	–	–
O=C1CSC(N2N=C(c3ccc(Cl)c(Cl)c3)CC2c2ccco2)=N1 (stereo not given)	6.25 (≈ 16.4 µM)	12.5 (≈ 32.9 µM)	12.5 (≈ 32.9 µM)	12.5 (≈ 32.9 µM)	–	–
Cc1ccc(C2=NN(C3=NC(=O)CS3)C(c3ccco3)C2)cc1 (stereo not given)	6.25 (≈ 19.2 µM)	3.13 (≈ 9.62 µM)	6.25 (≈ 19.2 µM)	3.13 (≈ 9.62 µM)	> 10	18.4
Cc1ccc(C2=NN(c3nc(-c4ccccc4)cs3)C(c3ccccc3)C2)cc1 (stereo not given)	12.5 (≈ 31.6 µM)	12.5 (≈ 31.6 µM)	12.5 (≈ 31.6 µM)	6.25 (≈ 15.8 µM)	–	–
NC[C@H]1O[C@H](O[C@H]2[C@H](O)[C@@H](O[C@H]3O[C@H](CO)[C@@H](O)[C@H](N)[C@H]3O)[C@H](N)C[C@@H]2N)[C@H](N)[C@@H](O)[C@@H]1O [BEKANAMYCIN]	3.13 (≈ 6.47 µM)	3.13 (≈ 6.47 µM)	1.56 (≈ 3.23 µM)	1.56 (≈ 3.23 µM)	–	–
